How the values were obtained:
[1] = system: mitochondria-bound hexokinase (mitochondrial fraction of BCL-1 leukemic cells); test: Hexokinase detachment assay, mitochondrial fraction of BCL-1 leukemic cells; assay type: biochemical, murine; details: BCL-1 mitochondrial fraction; 30 minutes at 37° C.
Procedure: Mitochondrial fraction was prepared by mechanical lysis and differential centrifugation. All stages were performed on ice. Cells or extracted tissues were washed with PBS and disrupted by homogenization in extraction buffer (Sucrose 250 mM, HEPES-NaOH 10 mM, pH 7.2) freshly supplemented with 0.1 mM EDTA and Protease Inhibitors cocktail (Sigma). For each gram of cells or tissue, 4 volumes of extraction buffer were applied. The homogenate volume was doubled with the extraction buffer, and tissue and cell debris as well as nuclei were pelleted by centrifugation of 1,000 g for 10 minutes. The supernatant was further spun at 13,000 g for 10 minutes twice. Endoplasmic reticulum layer was removed. The pellet, designated as the mitochondrial fraction, was suspended in the appropriate buffer, depending on the assay for which the mitochondrial fraction was prepared. Mitochondrial fractions were used immediately or stored at −196° C. […] Activity of hexokinase in the supernatant (i.e., activity of the detached hexokinase) was determined spectrophotometrically at 340 nm. […] Mitochondrial fractions isolated from different cancer cells, namely Molt-4 cells, BCL-1 leukemic cells and B16 melanoma tumors were incubated for 30 minutes at 37° C., and the activity of unbound hexokinase was measured and compared to the activity of spontaneously (control) detached hexokinase. […]

[2] = molecular target: T1, mitochondria-bound hexokinase (mitochondrial fraction isolated from mouse brain) (Mus musculus, UniProt P17710); test: Hexokinase detachment assay, mitochondrial fraction of mouse brain; assay type: biochemical
T1 construct: detach hexokinase from mitochondrial fraction isolated from mouse brain; from tissue; host or cells: mouse brain (mitochondrial fraction)
Procedure: To determine the amount of hexokinase detached from the mitochondrial fraction by different agents, mitochondria were incubated with the agent of interest and pelleted by centrifugation. Activity of hexokinase in the supernatant (i.e., activity of the detached hexokinase) was determined spectrophotometrically at 340 nm. The reaction couples the ADP formation by hexokinase, consuming the ADP for pyruvate formation by pyruvate kinase, and reducing the pyruvate with NADH by lactate dehydrogenase. Briefly, mitochondria were suspended in incubation buffer (HEPES pH 7.4 20 mM, Sucrose 0.25M, Glucose 10 mM, KCl5 mM, MgCl2 10 mM; 0.2 mg/test, 100 μL/test) and incubated as described below. Mitochondria-bound hexokinase was precipitated by centrifugation at 20,000 g for 10 minutes at 4° C. The activity of hexokinase in the supernatant fraction was assayed in reaction buffer (250 μL; HEPES pH 7.2 20 mM, MgCl2 5 mM, KCl 5 mM, glucose 10 mM) freshly supplemented with pyruvate kinase (1 U/ml), lactate dehydrogenase (1 U/ml), ATP (1 mM), phospho(enol)pyruvate (1 mM), NADH (0.18 mg/ml). […] Mitochondrial fractions were incubated for either 10, 30 or 60 minutes at 37° C. The activity of unbound hexokinase was measured and compared to the activity of spontaneously (control) detached hexokinase.

[3] = system: mitochondrial fraction isolated from CT-26 tumors; test: Cytochrome c release from mitochondrial fraction; assay type: biochemical, murine; details: 3 mM
Procedure: Freshly isolated mitochondrial fraction, at a final concentration of 2 mg/ml in a volume of 100 μL, was incubated at 37° C. with the examined agent, e.g. methyl jasmonate, in a KCl-based respiratory buffer (150 mM KCl, 25 mM NaHCO3, 1 mM MgCl2, 3 mM KH2PO4, 20 mM Hepes, pH 7.4; Pastorino, 2002). Potassium succinate (5 mM) was added as respiratory substrate (Azoulay-Zohar, 2004). For the determination of cytochrome c release, mitochondrial fraction was pelleted at 20,000×g for 10 minutes at 4° C. Pellets were incubated for 40 minutes with lysis buffer (Tris HCl, pH 8, 20 mM, NaCl 137 mM, EDTA 2 mM, pH 8, 1% Triton-X-100, Protease Inhibitors cocktail: Sigma) on ice (Fingrut, 2005). Pellet lysates and supernatants were separated on 12% SDS-PAGE gels and electroblotted onto nitrocellulose membranes. Cytochrome c was detected by specific antibody (1:1000, BD PharMingen, San Diego, Calif.). Antigen-antibody complexes were stained with horseradish peroxidase-conjugated antibody (1:10,000, Santa Cruz Biotechnology, CA) and enhanced chemiluminescence (ECL) reagent (EZ-ECL, Biological Industries, Beit Haemek, Israel), and exposed to ECL film (Eastman Kodak, Rochester, N.Y., U.S.A.). Cytochrome c release from mitochondrial fraction isolated from CT-26 tumors occurred within the same time frame (15-60 minutes) required to detach hexokinase from mitochondria (FIG. 3). […]

[4] = molecular target: T2, hexokinase-I-Voltage dependent anion channel interactions (Rattus norvegicus, UniProt P05708); test: Voltage-dependent anion channel recording in planar lipid bilayer after addition of hexokinase-I; assay type: biochemical; details: 3 mM, HK-I 20 mU/ml, recorded after 10 minutes
T2 construct: from tissue; host or cells: HK-I from rat brain mitochondria; VDAC from rat liver mitochondria
Procedure: Currents were measured with respect to the trans side of the membrane (ground).

[5] = system: CT26 cells transfected with pcDNA3-HKII or pcDNA3
Procedure: Cell death was determined by trypan blue exclusion. […] Alternatively, cytotoxicity was determined using hemacolor staining. Upon completion of a given experiment, cells were stained and the percentage of dead (detached) cells was determined spectrophotometrically.
CT26 cells were transfected with pcDNA3-HKII or pcDNA3, using FuGene HD transfection reagent (Roche, Basel, Switzerland), according to the manufacturer's instruction followed by selection using G418.
To examine the effect of hexokinase over-expression on methyl jasmonate action, CT26 cells were transfected with plasmids, pcDNA3-HKII or pcDNA3, encoding for hexokinase II over-expression and a control plasmid, respectively (Zaid, 2005). Cells were seeded in 96-well plates and allowed to adhere. Cells were exposed to methyl jasmonate for 60 minutes prior to ATP determination (FIG. […] 9B).

[6] = Solubility in SPR running buffer; assay type: physicochemical; details: PBS X 1 with 0.005% Tween and 5% DMSO
Procedure: SPR using ProteOn-EP5 (Bio-Rad, Hercules, Calif., USA) system has been applied to study the direct interaction of methyl jasmonate with hexokinase. This system allowed measuring ligand-analyte interactions in a 6×6 format in real time. Purified rat brain HKI and rabbit immunoglobulin G (Rb IgG; ligands) were diluted in 10 mM Na acetate pH 4 and 4.5, respectively, and coupled to a GLM sensor surface activated with 37.5 mg/ml N-Ethyl-N′-(3′ dimethylaminopropyl) carbodiimide hydrochloride and 7.5 mg/ml N-hydroxysuccinimide. HKI and IgG were added to saturate the chip at 100 μg/ml. Remaining reactive groups on the chip were then inactivated with 1 M ethanolamine pH 8.5. […] Methyl jasmonate and jasmonic acid (analytes) were diluted in running buffer (PBS X 1 with 0.005% Tween and 5% DMSO) and injected onto the sensor chip at varying concentrations. All experiments were performed at flow rate of 50 μl/min, at 25° C.

T1 sequence (P17710 1-918 isoform P17710-3): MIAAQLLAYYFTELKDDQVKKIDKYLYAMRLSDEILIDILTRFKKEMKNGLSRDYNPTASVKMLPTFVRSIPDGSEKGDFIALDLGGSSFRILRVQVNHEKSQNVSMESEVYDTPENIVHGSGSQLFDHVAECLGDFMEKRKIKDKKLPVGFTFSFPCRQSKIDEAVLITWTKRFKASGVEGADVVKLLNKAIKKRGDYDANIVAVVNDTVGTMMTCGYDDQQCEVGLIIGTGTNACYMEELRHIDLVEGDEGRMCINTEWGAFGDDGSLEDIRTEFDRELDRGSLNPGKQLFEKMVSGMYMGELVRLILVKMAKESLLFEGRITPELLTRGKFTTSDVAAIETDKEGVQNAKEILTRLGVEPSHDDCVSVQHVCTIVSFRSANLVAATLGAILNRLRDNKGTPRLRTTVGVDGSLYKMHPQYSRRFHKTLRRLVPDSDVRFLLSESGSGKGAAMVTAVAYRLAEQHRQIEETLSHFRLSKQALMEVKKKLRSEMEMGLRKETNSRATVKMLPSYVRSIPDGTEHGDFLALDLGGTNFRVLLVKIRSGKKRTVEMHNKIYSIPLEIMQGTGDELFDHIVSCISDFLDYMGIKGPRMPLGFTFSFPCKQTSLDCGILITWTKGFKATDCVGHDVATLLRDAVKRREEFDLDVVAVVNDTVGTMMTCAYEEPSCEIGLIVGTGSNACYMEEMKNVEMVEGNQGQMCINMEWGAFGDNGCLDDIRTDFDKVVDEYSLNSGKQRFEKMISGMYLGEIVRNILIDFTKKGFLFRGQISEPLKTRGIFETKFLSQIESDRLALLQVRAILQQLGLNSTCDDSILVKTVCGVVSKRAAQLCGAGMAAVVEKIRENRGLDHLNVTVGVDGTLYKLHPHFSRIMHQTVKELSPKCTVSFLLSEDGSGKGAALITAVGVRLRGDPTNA
T2 sequence (P05708 whole entry): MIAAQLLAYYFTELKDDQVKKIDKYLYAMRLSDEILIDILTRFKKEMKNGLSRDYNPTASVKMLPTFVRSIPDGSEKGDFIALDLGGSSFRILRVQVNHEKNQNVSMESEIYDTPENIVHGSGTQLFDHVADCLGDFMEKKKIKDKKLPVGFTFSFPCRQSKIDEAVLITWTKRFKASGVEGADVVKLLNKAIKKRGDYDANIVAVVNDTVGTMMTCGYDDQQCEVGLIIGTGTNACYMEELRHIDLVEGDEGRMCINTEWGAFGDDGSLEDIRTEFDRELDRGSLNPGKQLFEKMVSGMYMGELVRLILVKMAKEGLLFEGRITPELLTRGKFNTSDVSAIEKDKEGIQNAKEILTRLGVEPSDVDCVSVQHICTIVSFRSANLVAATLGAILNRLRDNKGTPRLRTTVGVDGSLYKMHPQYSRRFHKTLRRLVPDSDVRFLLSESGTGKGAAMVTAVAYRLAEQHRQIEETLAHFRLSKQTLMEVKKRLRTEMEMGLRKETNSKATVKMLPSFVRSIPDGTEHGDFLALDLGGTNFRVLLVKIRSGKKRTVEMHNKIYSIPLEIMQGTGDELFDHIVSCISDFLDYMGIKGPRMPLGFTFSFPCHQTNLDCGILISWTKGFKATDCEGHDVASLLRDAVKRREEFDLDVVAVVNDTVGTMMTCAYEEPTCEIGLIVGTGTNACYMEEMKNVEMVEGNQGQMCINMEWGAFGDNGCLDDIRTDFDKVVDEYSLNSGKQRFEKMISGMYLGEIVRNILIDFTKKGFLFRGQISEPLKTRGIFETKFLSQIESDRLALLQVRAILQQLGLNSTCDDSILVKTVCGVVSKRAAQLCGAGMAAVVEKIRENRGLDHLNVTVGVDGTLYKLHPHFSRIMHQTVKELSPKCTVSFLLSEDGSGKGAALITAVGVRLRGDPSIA

CC/C=C\CC1C(=O)CCC1CC(=O)OC (stereo not drawn) [methyl jasmonate]
detachment of hexokinase (activity of unbound hexokinase compared to control) [1]: detached hexokinase from mitochondrial fraction isolated from the three different cancer cells | detachment of hexokinase, time dependence ([2]; 3 mM, 10, 30 or 60 minutes at 37° C.): time-dependent | detachment of hexokinase, dose dependence ([2]; 30 minutes of incubation): dose dependent | time frame of cytochrome c release ([3]; CT-26 tumor mitochondrial fraction): 15 to 60 min | release of cytochrome c from isolated mitochondrial fraction ([3]; CT-26 tumor, 37° C.): caused time-dependent release of cytochrome c | effect on HK-I-induced low-conducting state of voltage-dependent anion channel ([4]; −20 mV): reversed by the addition of methyl jasmonate | effect on HK-I-closed voltage-dependent anion channel ([4]; −40 mV): led to re-opening of HK-I-closed channels | cytotoxicity (hemacolor), hexokinase II over-expressing vs. control cells [5]: decreased in cells with higher expression of hexokinase II | solubility in the running buffer [6]: limited solubility
